Consider two compounds from patent US5302514A, “Maltooligoside derivative, reagent for determining α-amylase activity containing the same as effective ingredient and a process for determining the α-amylase activity using same” (Kikkoman Corporation, priority 1991, dated 1994).

Data set [1] deals with T1, amylase derived from human pancreatic juice (human P type α-amylase) (Homo sapiens, UniProt P04746).
T1 sequence (P04746 16-511): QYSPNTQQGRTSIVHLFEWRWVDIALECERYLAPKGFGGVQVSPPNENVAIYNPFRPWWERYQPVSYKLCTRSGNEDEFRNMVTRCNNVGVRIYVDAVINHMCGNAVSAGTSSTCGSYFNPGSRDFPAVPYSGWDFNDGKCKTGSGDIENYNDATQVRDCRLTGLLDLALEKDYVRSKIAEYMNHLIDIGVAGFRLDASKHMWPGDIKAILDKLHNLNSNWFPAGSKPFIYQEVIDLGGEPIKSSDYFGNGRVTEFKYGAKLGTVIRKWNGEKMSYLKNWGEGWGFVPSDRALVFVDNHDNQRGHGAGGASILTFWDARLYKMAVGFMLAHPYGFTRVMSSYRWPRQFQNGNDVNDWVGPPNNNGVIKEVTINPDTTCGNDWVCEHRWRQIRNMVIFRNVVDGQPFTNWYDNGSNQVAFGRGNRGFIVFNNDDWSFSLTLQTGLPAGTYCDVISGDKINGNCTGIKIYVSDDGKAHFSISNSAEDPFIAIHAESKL
The experiment in a line: Patterns of action (hydrolyzed product by HPLC), P type α-amylase. In kind it is biochemical. The conditions noted are these: 0.5 mM substrate, 37° C., 20 minutes. How it is done:
(§1) Commercially available human P type and S type α-amylase solutions having a concentration of ca. 500 IU/l were prepared in the same manner as in the step (3) of Example 5.
To 1.0 ml of the substrate solution was added 100 μl of the α-amylase solution prepared in the paragraph (iii) of the aforementioned hydrolysis rate, and the mixture, after stirred sufficiently, was subjected to reaction at 37° C. for 20 minutes. The hydrolyzed product was determined quantitatively by the high performance liquid chromatography of the reaction mixture.
(§2) P: amylase derived from human pancreatic juice, […]

A short description of another data set: Solubility in water. In kind it is physicochemical. Particulars: 20 g of substrate added to 100 ml of water. The procedure:
To 100 ml of water was added 20 g of a substrate, and the dissolution state was observed.

In data set [2] the test system is coupled enzyme (α-glucosidase derived from yeast and β-glucosidase derived from almond). The experiment in a line: Coupled enzyme resistance test. The class given is biochemical. The conditions noted are these: 37° C., pH 7.0, FIG. 3 / FIG. 4; for hydrolysis by the coupled enzyme (in words): 3.0 mM substrate solution, α-glucosidase 1053 units/ml, β-glucosidase 15.5 units/ml, 400 nm for 5 minutes; for stability in a measuring system (in words): coupled enzyme system. How it is done: 2-chloro-4-nitrophenyl 5^5 -eno-4^5 -O-mesyl-β-D-maltopentaoside (molecular weight: 1044; referred to hereinafter as substrate of the present invention) obtained in Example 1 was dissolved in a 50 mM phosphate buffer (pH=7.0) containing 40 mM NaCl and 2 mM MgCl2 to a concentration of 3.0 mM.
2-chloro-4-nitrophenyl β-D-maltopentaoside (molecular weight: 984; referred to hereinafter as reference substrate) obtained in the conventional method was dissolved in a 50 mM phosphate buffer (pH=7.0) containing 40 mM NaCl and 2 mM MgCl2 to a concentation of 3.0 mM.
Coupled enzyme solution was prepared by dissolving a commercially available α-glucosidase derived from yeast and a commercially available β-glucosidase derived from almond in a 50 mM phosphate buffer (pH=7.0) containing 40 mM NaCl and 2 mM MgCl2 to a concentration of 1053 units/ml and 15.5 units/ml, respectively. As the commercially available α- and β-glucosidases, those available from Toyobo Co., Ltd. were used.
After 1.0 ml of a coupled enzyme solution was heated at 37° C. for 5 minutes, it was mixed sufficiently with 2.0 ml of the substrate solution of the present invention or the reference substrate solution and heated at 37° C. for 3 minutes. Then, variations of the absorbance at a wavelength of 400 nm were measured for 5 minutes.
The test was carried out in the same manner as in Example 9 except that 2-chloro-4-nitrophenyl 6^5 -azido-6^5 -deoxy-β-D-maltopentaoside (molecular weight: 1009; referred to hereinafter as the substrate of the present invention) obtained in Example 3 was employed as the substrate (a). In FIG. 4, marks Δ show the plottings of the substrate solution (a) and the marks .quadrature. show the plottings of the substrate solution (b).

Data set [3] has as its target T1, amylase derived from human pancreatic juice (human P type α-amylase). The experiment in a line: Km value, P type α-amylase. The class given is biochemical. The conditions noted are these: pH 7.0, 37° C., Lineweaver-Burk. How it is done:
Km values, hydrolysis rate, water solubility and the patterns of action in the hydrolysis of the present substrates 2-chloro-4-nitrophenyl 5^5 -eno-4^5 -O-mesyl-β-D-maltopentaoside (EMG5CNP) and 2-chloro-4-nitrophenyl 6^5 -azido-6^5 -deoxy- β-D-maltopentaoside (ADG5CNP) obtained in Example were examined in accordance with the following methods.
Substrate solutions were prepared by dissolving in a 50 mM phosphate buffer (pH=7.0) containing 40 mM NaCl and 2 mM MgCl2 a substrate to 0.16, 0.32, 0.48, 0.64, 0.80 and 0.96 mM, respectively.
The Km value of each substrate solution was obtained by measuring the hydrolysis rate of the substrate in accordance with the same procedure as in the measurement of hydrolysis rate described below and roughly calculating the Lineweaver-Burk's reciprocal plot (see "Tanpaku-Kohso no Jikken-hou", ed. Takeichi Horio & Jinpei Yamashita, Nanko-do, 1981).
Each substrate was dissolved in a 50 mM phosphate buffer (pH=7.0) containing 40 mM NaCl and 2 mM MgCl2 to make three substrate solutions in a concentration of 0.8-1.6 times and three substrate solutions in a concentration of 1.6-3.2 times per the roughly calculated Km value in the aforementioned paragraph (ii).
The Km value was calculated in accordance with the same procedure as in the aforementioned paragraph (ii).
as §2

The target is the same in data set [4]. The experiment in a line: Hydrolysis rate, P type α-amylase. Particulars: relative to hydrolysis rate of 3 mM G5CNP defined as 10, substrate 7-9 times the Km. In kind it is biochemical. The procedure: The coupled enzyme solution was prepared in the same manner as in the step (2) of Example 5.
as §1
With 250 μl of the α-amylase solution prepared in (iii) was mixed 1.0 ml of the coupled enzyme. The mixture was heated at 37° C. for 1 minute, and 2.0 ml of the substrate solution was added with stirring to the mixture. The variation of absorbance at 400 nm was measured for 2 minutes after heating the mixture at 37° C. for 2 minutes. The hydrolysis rate of each substrate, namely the variable absorbance per unit time was expressed with the relative values to the hydrolysis rate of 3 mM G5CNP (the reference substrate) which is defined as 10.
as §2

SMILES strings stand for the structures.

With `[N-]=[N+]=NC[C@H]1O[C@H](O[C@H]2[C@H](O)[C@@H](O)[C@@H](O[C@H]3[C@H](O)[C@@H](O)[C@@H](O[C@H]4[C@H](O)[C@@H](O)[C@@H](O[C@H]5[C@H](O)[C@@H](O)[C@H](Oc6ccc([N+](=O)[O-])cc6Cl)O[C@@H]5CO)O[C@@H]4CO)O[C@@H]3CO)O[C@@H]2CO)[C@H](O)[C@@H](O)[C@@H]1O` [ADG5CNP, 2-chloro-4-nitrophenyl 6^5-azido-6^5-deoxy-β-D-maltopentaoside], in data set [1], the “Patterns of action, hydrolyzed product G2CNP” value is recorded as 97 mol %; the “Patterns of action, hydrolyzed product G3CNP” value is 3 mol %; the “Patterns of action, hydrolyzed product G4CNP” value was determined as 0 mol %; the “Patterns of action, hydrolyzed product GCNP” value was 0 mol %. Besides, the Solubility in water entry in “Solubility in water” is reported as “Good”. In addition, in data set [2], the “hydrolysis by the coupled enzyme (in words)” value is listed as “not hydrolyzed” and the “stability in a measuring system (in words)” value is “stable”. Besides, the Km – broadly, the concentration of substrate that gives half-maximal velocity – in data set [3] was found to be 170 µM. This compound also registered a Hydrolysis rate in data set [4] of 10.
With `C=C1O[C@H](O[C@H]2[C@H](O)[C@@H](O)[C@@H](O[C@H]3[C@H](O)[C@@H](O)[C@@H](O[C@H]4[C@H](O)[C@@H](O)[C@@H](O[C@H]5[C@H](O)[C@@H](O)[C@H](Oc6ccc([N+](=O)[O-])cc6Cl)O[C@@H]5CO)O[C@@H]4CO)O[C@@H]3CO)O[C@@H]2CO)[C@H](O)[C@@H](O)[C@@H]1OS(C)(=O)=O` [EMG5CNP, 2-chloro-4-nitrophenyl 5^5-eno-4^5 -O-mesyl-β-D-maltopentaoside], in data set [1], the “Patterns of action, hydrolyzed product G2CNP” value turned out to be 97 mol %; the “Patterns of action, hydrolyzed product G3CNP” value is on record as 0 mol %; the “Patterns of action, hydrolyzed product G4CNP” value was determined as 0 mol %; the “Patterns of action, hydrolyzed product GCNP” value is recorded as 3 mol %. Moreover, in the data set “Solubility in water”, the Solubility in water result is “Good”. In addition, in data set [2], the “hydrolysis by the coupled enzyme (in words)” value is “not hydrolyzed” and the “stability in a measuring system (in words)” value is reported as “stable”. For the same compound, the Km in data set [3] was determined as 130 µM. Further, in data set [4], the Hydrolysis rate turned out to be 10.
